Converted amounts (≈) assume the structure as drawn. Read-outs that look alike come from different tables or passages of the source.
Key:
[1] = biological target: human (hACC2) (Homo sapiens, UniProt O00763); assay: In vitro ACC inhibition assay (ADP-Glo), hACC2; assay type: biochemical; conditions: Table 2b, additional results, 5 nM ACC2, 20 μM ATP, 20 μM acetyl-CoA
Method: The detailed procedure is as follows. […] 10 μL ADP glo reagent was added. […] 20 μL kinase detection reagent was added.

[2] = tested on: C. albicans; assay: Antifungal Activity Assay (broth microtiter MIC), C. albicans; assay type: cell-based, Candida albicans; conditions: Candida albicans, ATCC90028, 48 h
Procedure, shortened: (§1)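 MIC read by eye at 48 h, comparing challenged wells with the growth control. Yeasts grown overnight on Sabouraud dextrose agar at 35° C, suspended in RPMI 1640+MOPS and added at 2.5×10^3 CFU/mL final, following CLSI M27-A3.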

[3] = tested on: C. krusei; assay: Antifungal Activity Assay (broth microtiter MIC), C. krusei; assay type: cell-based, Candida krusei; conditions: Pichia kudriavzevii, ATCC6258, 48 h
Procedure, shortened: as §1

[4] = tested on: C. parapsilosis; assay: Antifungal Activity Assay (broth microtiter MIC), C. parapsilosis; assay type: cell-based, Candida parapsilosis; conditions: Lodderomyces parapsilosis, ATCC22019, 48 h
Procedure, shortened: as §1

[5] = biological target: fungal (fACC2) (UniProt Q00955); conditions: read-out: fACC2 (in vitro ACC2 Inhibition Assay, IC50); Table 2b, additional results; ADP-Glo, 5 nM ACC2, 20 μM ATP, 20 μM acetyl-CoA
[6] = Table 3b (additional results), ATCC 90028, 3 replicates, MIC recorded at 48 h, read-out: MIC, C. albicans ATCC 90028
[7] = Table 3b (additional results), ATCC 6258, 3 replicates, MIC recorded at 48 h, read-out: MIC, C. krusei ATCC 6258
[8] = Table 3b (additional results), ATCC 22019, 3 replicates, MIC recorded at 48 h, read-out: MIC, C. parapsilosis ATCC 22019

Sequence of human (hACC2) (O00763 whole entry): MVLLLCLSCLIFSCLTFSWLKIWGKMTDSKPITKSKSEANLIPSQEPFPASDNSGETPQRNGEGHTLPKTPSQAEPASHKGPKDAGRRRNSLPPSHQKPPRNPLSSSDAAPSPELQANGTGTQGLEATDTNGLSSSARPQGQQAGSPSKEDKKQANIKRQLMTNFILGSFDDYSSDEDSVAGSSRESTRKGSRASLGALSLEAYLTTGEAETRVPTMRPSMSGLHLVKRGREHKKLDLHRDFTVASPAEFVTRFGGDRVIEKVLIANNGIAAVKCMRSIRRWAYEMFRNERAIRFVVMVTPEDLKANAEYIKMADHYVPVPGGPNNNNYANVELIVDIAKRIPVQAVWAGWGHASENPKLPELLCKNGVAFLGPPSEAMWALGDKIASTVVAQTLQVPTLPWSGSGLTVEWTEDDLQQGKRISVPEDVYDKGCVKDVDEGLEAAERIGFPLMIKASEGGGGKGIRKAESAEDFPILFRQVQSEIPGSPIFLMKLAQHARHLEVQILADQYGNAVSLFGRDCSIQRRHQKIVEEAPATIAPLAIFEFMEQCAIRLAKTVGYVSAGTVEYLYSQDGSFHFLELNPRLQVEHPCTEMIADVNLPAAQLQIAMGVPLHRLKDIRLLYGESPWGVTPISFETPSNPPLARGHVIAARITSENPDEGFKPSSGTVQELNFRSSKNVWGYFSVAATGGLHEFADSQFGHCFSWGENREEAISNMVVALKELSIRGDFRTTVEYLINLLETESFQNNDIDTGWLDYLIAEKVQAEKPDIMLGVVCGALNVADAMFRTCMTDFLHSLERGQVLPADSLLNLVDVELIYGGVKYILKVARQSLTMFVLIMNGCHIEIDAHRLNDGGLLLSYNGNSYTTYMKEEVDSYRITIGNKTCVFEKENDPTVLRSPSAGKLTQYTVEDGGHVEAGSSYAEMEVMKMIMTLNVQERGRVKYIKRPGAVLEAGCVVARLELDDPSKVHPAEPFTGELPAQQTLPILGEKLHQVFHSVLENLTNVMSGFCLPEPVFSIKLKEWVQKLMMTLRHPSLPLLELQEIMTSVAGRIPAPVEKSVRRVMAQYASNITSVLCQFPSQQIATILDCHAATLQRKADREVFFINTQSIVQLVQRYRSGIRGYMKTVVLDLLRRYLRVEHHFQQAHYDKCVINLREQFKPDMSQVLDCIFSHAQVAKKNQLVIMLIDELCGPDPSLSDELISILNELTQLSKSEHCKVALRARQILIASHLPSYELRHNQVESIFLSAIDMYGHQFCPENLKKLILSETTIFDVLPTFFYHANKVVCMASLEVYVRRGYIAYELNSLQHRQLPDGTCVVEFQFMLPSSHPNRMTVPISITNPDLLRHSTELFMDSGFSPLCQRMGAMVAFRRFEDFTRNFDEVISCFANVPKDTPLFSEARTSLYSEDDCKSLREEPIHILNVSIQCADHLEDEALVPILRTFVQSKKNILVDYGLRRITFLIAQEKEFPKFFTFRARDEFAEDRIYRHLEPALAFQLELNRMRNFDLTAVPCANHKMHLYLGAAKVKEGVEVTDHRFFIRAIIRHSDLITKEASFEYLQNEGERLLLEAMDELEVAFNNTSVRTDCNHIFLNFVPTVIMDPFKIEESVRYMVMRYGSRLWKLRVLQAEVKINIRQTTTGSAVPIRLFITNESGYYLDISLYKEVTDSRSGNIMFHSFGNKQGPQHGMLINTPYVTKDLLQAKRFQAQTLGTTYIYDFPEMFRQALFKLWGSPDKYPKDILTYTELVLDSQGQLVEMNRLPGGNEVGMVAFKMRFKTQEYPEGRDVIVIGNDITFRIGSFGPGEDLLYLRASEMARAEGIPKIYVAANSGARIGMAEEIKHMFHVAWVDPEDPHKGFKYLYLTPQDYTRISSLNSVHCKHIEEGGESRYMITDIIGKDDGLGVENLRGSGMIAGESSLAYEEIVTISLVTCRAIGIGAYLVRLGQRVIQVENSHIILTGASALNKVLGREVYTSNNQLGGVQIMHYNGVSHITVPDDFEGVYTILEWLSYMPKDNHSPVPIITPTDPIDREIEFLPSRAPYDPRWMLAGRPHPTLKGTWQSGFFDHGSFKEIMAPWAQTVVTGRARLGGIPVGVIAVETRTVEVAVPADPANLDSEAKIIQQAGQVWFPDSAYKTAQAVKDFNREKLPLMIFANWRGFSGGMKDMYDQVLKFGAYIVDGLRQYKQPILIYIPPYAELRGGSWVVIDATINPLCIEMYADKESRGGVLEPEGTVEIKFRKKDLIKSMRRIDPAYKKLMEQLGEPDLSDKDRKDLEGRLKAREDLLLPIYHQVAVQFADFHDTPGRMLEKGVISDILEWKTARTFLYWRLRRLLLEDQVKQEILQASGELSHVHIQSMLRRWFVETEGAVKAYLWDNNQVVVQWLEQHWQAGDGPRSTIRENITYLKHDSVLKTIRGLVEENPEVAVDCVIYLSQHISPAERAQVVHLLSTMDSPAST
Sequence of fungal (fACC2) (Q00955 whole entry): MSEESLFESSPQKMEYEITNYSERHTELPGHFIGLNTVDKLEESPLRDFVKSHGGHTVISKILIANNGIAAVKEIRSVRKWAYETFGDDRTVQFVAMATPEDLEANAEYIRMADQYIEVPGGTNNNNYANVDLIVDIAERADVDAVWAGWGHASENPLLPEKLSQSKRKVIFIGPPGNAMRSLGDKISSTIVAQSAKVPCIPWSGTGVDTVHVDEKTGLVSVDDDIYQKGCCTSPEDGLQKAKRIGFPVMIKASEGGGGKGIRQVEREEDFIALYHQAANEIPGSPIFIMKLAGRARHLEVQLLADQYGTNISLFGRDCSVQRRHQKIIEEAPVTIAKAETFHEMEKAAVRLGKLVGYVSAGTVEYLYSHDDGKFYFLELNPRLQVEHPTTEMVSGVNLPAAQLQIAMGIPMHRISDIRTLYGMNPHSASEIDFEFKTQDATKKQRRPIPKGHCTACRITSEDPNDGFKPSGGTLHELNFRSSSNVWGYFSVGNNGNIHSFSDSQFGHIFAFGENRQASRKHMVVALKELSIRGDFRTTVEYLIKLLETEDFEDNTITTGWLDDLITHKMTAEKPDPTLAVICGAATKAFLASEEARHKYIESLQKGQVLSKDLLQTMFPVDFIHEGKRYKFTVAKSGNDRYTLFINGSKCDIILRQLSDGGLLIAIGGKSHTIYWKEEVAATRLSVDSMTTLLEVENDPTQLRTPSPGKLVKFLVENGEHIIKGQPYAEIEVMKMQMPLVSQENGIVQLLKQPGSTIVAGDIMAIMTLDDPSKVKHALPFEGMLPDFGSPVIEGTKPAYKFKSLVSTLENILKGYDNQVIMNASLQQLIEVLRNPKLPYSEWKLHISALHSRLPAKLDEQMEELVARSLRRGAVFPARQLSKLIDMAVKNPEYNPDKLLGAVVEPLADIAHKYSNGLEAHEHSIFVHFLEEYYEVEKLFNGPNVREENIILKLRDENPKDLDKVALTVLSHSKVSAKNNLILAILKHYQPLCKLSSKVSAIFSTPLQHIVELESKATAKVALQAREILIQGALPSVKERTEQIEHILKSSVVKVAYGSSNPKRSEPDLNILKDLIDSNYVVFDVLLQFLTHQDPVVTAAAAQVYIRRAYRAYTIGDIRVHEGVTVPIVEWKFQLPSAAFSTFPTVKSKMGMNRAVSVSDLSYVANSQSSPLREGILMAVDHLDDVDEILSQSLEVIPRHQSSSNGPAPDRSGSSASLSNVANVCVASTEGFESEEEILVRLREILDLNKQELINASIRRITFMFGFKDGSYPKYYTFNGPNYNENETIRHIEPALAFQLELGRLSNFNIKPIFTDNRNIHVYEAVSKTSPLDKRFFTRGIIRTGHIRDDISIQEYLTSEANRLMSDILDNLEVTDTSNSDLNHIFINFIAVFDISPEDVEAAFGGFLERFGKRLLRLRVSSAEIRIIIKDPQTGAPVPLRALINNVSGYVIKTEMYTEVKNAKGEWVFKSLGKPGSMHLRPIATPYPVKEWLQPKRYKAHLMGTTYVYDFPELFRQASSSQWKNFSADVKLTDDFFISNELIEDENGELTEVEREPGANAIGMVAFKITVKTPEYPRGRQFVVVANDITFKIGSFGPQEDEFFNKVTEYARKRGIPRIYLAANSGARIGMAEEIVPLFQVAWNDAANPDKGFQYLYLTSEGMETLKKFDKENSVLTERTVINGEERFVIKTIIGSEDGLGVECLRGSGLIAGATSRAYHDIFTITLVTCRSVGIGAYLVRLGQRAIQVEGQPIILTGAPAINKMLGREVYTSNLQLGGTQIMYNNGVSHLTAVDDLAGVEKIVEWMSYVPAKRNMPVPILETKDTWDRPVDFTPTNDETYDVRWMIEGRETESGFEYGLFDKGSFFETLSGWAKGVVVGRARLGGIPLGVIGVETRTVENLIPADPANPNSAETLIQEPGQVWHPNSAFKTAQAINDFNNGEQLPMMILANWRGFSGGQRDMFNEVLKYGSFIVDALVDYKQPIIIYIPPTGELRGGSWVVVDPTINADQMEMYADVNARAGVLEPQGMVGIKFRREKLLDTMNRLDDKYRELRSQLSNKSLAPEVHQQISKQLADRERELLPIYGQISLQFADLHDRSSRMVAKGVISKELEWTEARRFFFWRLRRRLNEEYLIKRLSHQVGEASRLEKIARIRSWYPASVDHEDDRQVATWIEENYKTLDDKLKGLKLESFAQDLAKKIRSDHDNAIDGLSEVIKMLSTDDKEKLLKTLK

| Compound | IC50 [1] [nM] | MIC [2, 6] [µg/mL] | MIC [3, 7] [µg/mL] | MIC [4, 8] [µg/mL] | IC50 [5] [nM] | MIC ([2]; read-out: MIC, C. albicans ATCC 90028, Table 3b (additional results), 3 replicates, MIC recorded at 48 h) [µg/mL] | MIC ([3]; read-out: MIC, C. krusei ATCC 6258, Table 3b (additional results), 3 replicates, MIC recorded at 48 h) [µg/mL] | MIC ([4]; read-out: MIC, C. parapsilosis ATCC 22019, Table 3b (additional results), 3 replicates, MIC recorded at 48 h) [µg/mL] |
| --- | --- | --- | --- | --- | --- | --- | --- | --- |
| COc1ccc(F)cc1[C@H](Cn1c(=O)n(C(C)(C)C(=O)NC(C)C)c(=O)c2c(C)c(-n3nccn3)sc21)OCCOC(=O)C(C)C [Compound I-250] | 5 to 10 | 1.01 to 2 (≈ 1.53 to 3.04 µM) | 0.25 to 1 (≈ 0.38 to 1.52 µM) | 0.25 to 1 (≈ 0.38 to 1.52 µM) | 1 to 5 | – | – | – |
| COc1ccc(F)cc1[C@@H](Cn1c(=O)n(C(C)(C)C(=O)NC(C)C)c(=O)c2c(C)c(-n3nccn3)sc21)OC(=O)CO [Compound I-261] | 5 to 10 | 0.25 to 1 (≈ 0.415 to 1.66 µM) | 0.06 to 0.249 (≈ 0.0996 to 0.413 µM) | 1.01 to 2 (≈ 1.68 to 3.32 µM) | 0.3 to 1 | – | – | – |
| COc1ccc(F)cc1[C@@H](Cn1c(=O)n(C(C)(C)C(=O)NC(C)C)c(=O)c2c(C)c(-n3nccn3)sc21)OC(=O)C(C)(C)O [Compound I-263] | 10 to 40 | – | – | – | 0.3 to 1 | 0.25 to 1 (≈ 0.396 to 1.59 µM) | 0.25 to 1 (≈ 0.396 to 1.59 µM) | 1.01 to 2 (≈ 1.6 to 3.17 µM) |
| CCOC(=O)[C@H]1CC[C@@H](O[C@@H](Cn2c(=O)n(C(C)(C)C(=O)NC(C)C)c(=O)c3c(C)c(-n4nccn4)sc32)c2cc(F)ccc2OC)CC1 [Compound I-264] | 10 to 40 | 0.25 to 1 (≈ 0.358 to 1.43 µM) | 0.06 to 0.249 (≈ 0.0859 to 0.356 µM) | 0.25 to 1 (≈ 0.358 to 1.43 µM) | 1 to 5 | – | – | – |
| COc1ccc(F)cc1[C@H](Cn1c(=O)n(C(C)(C)C(=O)NC(C)C)c(=O)c2c(C)c(-n3nccn3)sc21)O[C@H]1CC[C@@H](C(=O)O)CC1 [Compound I-265] | 10 to 40 | 0.25 to 1 (≈ 0.373 to 1.49 µM) | 0.06 to 0.249 (≈ 0.0895 to 0.371 µM) | 0.25 to 1 (≈ 0.373 to 1.49 µM) | 1 to 5 | – | – | – |
| CCOC(=O)[C@H]1CC[C@H](O[C@@H](Cn2c(=O)n(C(C)(C)C(=O)NC(C)C)c(=O)c3c(C)c(-n4nccn4)sc32)c2cc(F)ccc2OC)CC1 [Compound I-269] | > 40 | 0.25 to 1 (≈ 0.358 to 1.43 µM) | 0.06 to 0.249 (≈ 0.0859 to 0.356 µM) | 0.25 to 1 (≈ 0.358 to 1.43 µM) | 1 to 5 | – | – | – |
| COc1ccc(F)cc1[C@H](Cn1c(=O)n(C(C)(C)C(=O)NC(C)C)c(=O)c2c(C)c(-n3nccn3)sc21)O[C@H]1CC[C@H](C(=O)O)CC1 [Compound I-270] | 10 to 40 | 0.25 to 1 (≈ 0.373 to 1.49 µM) | 0.06 to 0.249 (≈ 0.0895 to 0.371 µM) | 0.25 to 1 (≈ 0.373 to 1.49 µM) | 0.3 to 1 | – | – | – |
| COc1ccc(F)cc1[C@H](Cn1c(=O)n(C(C)(C)C(=O)NC(C)C)c(=O)c2c(C)c(-n3nccn3)sc21)OC[C@H](C)C(=O)O [Compound I-273] | > 40 | 0.25 to 1 (≈ 0.396 to 1.59 µM) | 0.25 to 1 (≈ 0.396 to 1.59 µM) | 1.01 to 2 (≈ 1.6 to 3.17 µM) | 0.3 to 1 | – | – | – |
| COc1ccc(F)cc1[C@H](Cn1c(=O)n(C(C)(C)C(=O)NC(C)C)c(=O)c2c(C)c(-n3nccn3)sc21)OC[C@@H](C)C(=O)O [Compound I-274] | > 40 | 0.25 to 1 (≈ 0.396 to 1.59 µM) | 0.25 to 1 (≈ 0.396 to 1.59 µM) | 1.01 to 2 (≈ 1.6 to 3.17 µM) | 0.3 to 1 | – | – | – |

Reference: patent publication US10800791B2, “Triazole ACC inhibitors and uses thereof” (Gilead Apollo, LLC, priority 2015, dated 2020)
